Assay results published in patent publication US12673039B2, “Methods of inducing autophagy using coumarin derivatives and related compounds” (Buck Institute for Research on Aging, priority 2019, dated 2026).

Legend:
UA44 worms = assay: Dopaminergic neuronal loss in UA44 worms expressing human α-synuclein; format: in vivo, C. elegans
C. elegans = C. elegans lifespan assays; format: in vivo
From the text: FIG. 21, panels A-F: AIC106 prevents neuronal loss and proteotoxicity in strains expressing human neurotoxic proteins. Panel A) Dopaminergic neuronal loss in day-5 UA44 worms was quantified by scoring percentage of worms with intact 4-CEP neurons in AIC106 and DMSO-control treatment. [N=3 independent experiments (mean±SD). ***p<0.001, by one-way ANOVA with Tukey's multiple comparisons test]. Motor function in (panel B) day-7 NL5901 and (panel C) day-5 CL2006 worms were quantified by scoring number of thrashes for an individual worm over the period of 30 seconds (dots) in AIC106 and DMSO-control treatment. [N=3 independent experiments (mean±SD). **p<0.01, ***p<0.001 and ****p<0.0001, by one-way ANOVA with Tukey's multiple comparisons test]. Panel D) Motor function in temperature sensitive (enhanced paralysis at 25° C.) CL4176 worms was determined by scoring percent of worms paralyzed in AIC106 and DMSO-control treatment. [N=3 independent experiments (mean±SD). **p<0.01, by one-way ANOVA with Tukey's multiple comparisons test]. Panel E) Lifespan analysis of CL6049 worms exposed to AIC106 and DMSO-control. [N=2 independent experiments, Treatment (median survival in days, P value compared to DMSO-control): DMSO-control (12), AIC106 10 μM (15, p<0.01), 20 μM (15, p<0.0001) and 50 μM (17, p<0.0001). P-value calculated by Logrank test]. Panel F) Effect of AIC106 on polyQ40 aggregation was determined by scoring number of polyQ40-YFP fluorescent puncta in an individual AM141 worm treated with AIC106 and DMSO-control. [N=3 independent experiments (mean±SD). *p<0.05 and ***p<0.001, by one-way ANOVA with Tukey's multiple comparisons test].
FIG. 27, panels A-C: AIC106 induces mitophagy and increases lifespan. Panel A) Relative fold change in mRNA of key mitophagy genes including dct-1, pink-1 and pdr-1 was quantified by qRT-PCR after DMSO-control and AIC106 24 hours treatment in young adult N2 and hlh-30(tm1978) mutants. [N=3 independent experiments (mean±SD). **p<0.01 and ****p<0.0001, by two-way ANOVA with Sidak's multiple comparisons test]. Short exposure (1 week) of AIC106 increased survival of (panel B) wild type N2: DMSO-control (median-12 days), AIC106 50 μM (median-15 days, p<0.0001) and (panel C) mitophagy deficient pdr-1(tm598): mutant DMSO-control (median-15 days), AIC106 50 μM (median −17 days, p<0.001)]. [N=3 independent experiments, P value compared to respective DMSO-control and calculated by Logrank test).
FIG. 28, panels A-B: AIC106 prevents neuronal loss and proteotoxicity in strains expressing human neurotoxic proteins. Panel A) Motor function in day-7 NL5901 were quantified by scoring number of thrashes for an individual worm over the period of 30 seconds (dots) in AIC106 and DMSO-control treatment. [N=3 independent experiments (mean±SD). ***p<0.001 and ****p<0.0001, by one-way ANOVA with Tukey's multiple comparisons test]. Panel B) Lifespan analysis of CL6049 worms exposed to AIC106 and DMSO-control. [N=2 independent experiments, Treatment (median survival in days, P value compared to DMSO-control): DMSO-control RNAi (18), CL6049-AIC106 control RNAi (21, p<0.0001), CL6049-AIC106 hlh-30 RNAi (17, p<0.0001) and 50 μM (17, p<0.0001). P-value calculated by Logrank test].
Lifespan assays for CL6049 and pdr-1(tm598) strains was performed after treating day-1 adult worms with DMSO or AIC106. A synchronized 35-40 young day-1 adult worms were transferred to each 35 mm compound-treated plates supplemented with FuDR containing control DMSO or AIC106 and kept at 20° C. Worms were scored as alive, dead, or lost every alternate day. […] Worms that died from causes other than aging, such as sticking to the plate walls, internal hatching of eggs (bagging), or gonadal extrusion were censored as lost. Worms were transferred to fresh-drugged plates every 3-5 days. All lifespan experiments were performed at 20° C.

What does the source list for `O=c1oc2c3c4c(cc2c2c1CCC2)CCCN4CCC3` [C1, 2,3,6,7,10,11-Hexahydro-1H,5H-cyclopenta(3,4)(1)benzopyrano(6,7,8-ij)quinolizin-12(9H)-one]?
neuronal loss (UA44 worms; strain expressing human α-synuclein within dopaminergic neurons): prevented neuronal loss; neuroprotection (UA44 worms; worms treated with hlh-30 RNAi): failed to show any neuroprotection; median survival (C. elegans; CL6049, 50 μM as listed in FIG. 28 panel B legend): 17 days; median survival (C. elegans; CL6049, control RNAi, DMSO-control RNAi 18): 21 days; median survival (C. elegans; CL6049, hlh-30 RNAi): 17 days; median survival (C. elegans; CL6049 worms, 10 μM, DMSO-control 12): 15 days; median survival (C. elegans; CL6049 worms, 20 μM, DMSO-control 12): 15 days; median survival (C. elegans; CL6049 worms, 50 μM, DMSO-control 12): 17 days; human TDP-43 toxicity (survival) (C. elegans; CL6049 worms, dose dependent): protected against human TDP-43 toxicity; lifespan (C. elegans; short treatment (1 week post-development)): significant increase in lifespan of both wild type N2 and pdr-1 mutant
